According to patent US4341766A, “Deactivation of antibiotic-hydrolyzing enzymes” (priority 1980, dated 1982):
Where two headings read alike, the source gives them in different places.

Columns and labels:
[1] = target: T1, E. coli RTEM β-lactamase (Escherichia coli, UniProt P62593); assay: in vitro treatment of E. coli RTEM β-lactamase (deactivation); type: biochemical; details: for t1/2 for deactivation: in vitro, E. coli RTEM β-lactamase; for comparative efficacy as β-lactamase deactivating agent: in words, comparison of the four compounds of Table I; for turnovers before deactivation: number of molecules of compound needed to inactivate one β-lactamase molecule
T1 construct: mature periplasmic enzyme
T1 sequence (P62593 24-286 limits assumed): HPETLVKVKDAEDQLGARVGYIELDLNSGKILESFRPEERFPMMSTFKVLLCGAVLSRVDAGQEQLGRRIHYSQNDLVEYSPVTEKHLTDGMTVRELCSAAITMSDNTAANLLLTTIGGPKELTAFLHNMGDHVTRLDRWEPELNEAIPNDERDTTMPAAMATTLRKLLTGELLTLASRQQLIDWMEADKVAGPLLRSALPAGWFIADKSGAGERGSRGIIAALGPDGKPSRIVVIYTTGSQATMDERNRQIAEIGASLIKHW

[2] = target: T1, E. coli RTEM β-lactamase; assay: rate constant (kcat) of the corresponding N-acyl derivative of 6-aminopenicillanic acid as β-lactamase substrate; type: biochemical
Source text: We believe the acyl-enzyme intermediates either deacylate (resulting in the undesirable restoration of the lactamase) or fragment (resulting in the desirable deactivation of the lactamase). […] This can be achieved by employing an N-acyl derivative of 6-aminopenicillanic acid sulfone in which the corresponding N-acyl derivative of 6-aminopenicillanic acid is a very poor substrate for β-lactamase. Since the rate constant (kcat) of an N-acyl derivative of 6-aminopenicillanic acid is a measure of its ability to act as a substrate, this constant provides the basis for defining the class of sulfones used in the invention.
Quinacillin sulfone's effectiveness is shown both by the low inactivation time, and by the low number of turnovers before inactivation (the low number of molecules of quinacillin sulfone needed to inactivate one β-lactamase molecule).

Compound	t1/2 for deactivation [1]	comparative efficacy as β-lactamase deactivating agent [1]	turnovers before deactivation [1]	kcat of corresponding N-acyl derivative of 6-aminopenicillanic acid [2] [s⁻¹]	kcat of corresponding N-acyl derivative of 6-aminopenicillanic acid ([2]; value belongs to the parent (non-sulfone) penicillin corresponding to the listed sulfone, substrate capability for β-lactamase)
Cc1onc(-c2ccccc2Cl)c1C(=O)N[C@@H]1C(=O)N2[C@@H](C(=O)O)C(C)(C)S(=O)(=O)[C@H]12 [cloxacillin sulfone]	1.5 min	effective deactivating agents, though less effective than quinacillin sulfone	17,000		
COc1cccc(OC)c1C(=O)N[C@@H]1C(=O)N2[C@@H](C(=O)O)C(C)(C)S(=O)(=O)[C@H]12 [methicillin sulfone]	~ 1 min	effective deactivating agents, though less effective than quinacillin sulfone	22,500		
CC1(C)[C@H](C(=O)O)N2C(=O)C[C@H]2S1(=O)=O [CP-45, 899, 6-des-aminopenicillanic acid sulfone, reference compound]			4,500	40	
CC1(C)S[C@@H]2[C@H](NC(=O)c3nc4ccccc4nc3C(=O)O)C(=O)N2[C@H]1C(=O)O [quinacillin]					lowest kcat value
CC1(C)[C@H](C(=O)O)N2C(=O)[C@@H](NC(=O)c3nc4ccccc4nc3C(=O)O)[C@H]2S1(=O)=O [quinacillin sulfone]	~ 1 min	most effective of the four compounds listed	400		
